The text below walks through data of patent publication US9139577B2, “Sulfoximine substituted quinazolines for pharmaceutical compositions” (Boehringer Ingelheim International GmbH, priority 2013, dated 2015).

Structures are written as SMILES.

MNK2a, sequence (Q9HBH9 whole entry): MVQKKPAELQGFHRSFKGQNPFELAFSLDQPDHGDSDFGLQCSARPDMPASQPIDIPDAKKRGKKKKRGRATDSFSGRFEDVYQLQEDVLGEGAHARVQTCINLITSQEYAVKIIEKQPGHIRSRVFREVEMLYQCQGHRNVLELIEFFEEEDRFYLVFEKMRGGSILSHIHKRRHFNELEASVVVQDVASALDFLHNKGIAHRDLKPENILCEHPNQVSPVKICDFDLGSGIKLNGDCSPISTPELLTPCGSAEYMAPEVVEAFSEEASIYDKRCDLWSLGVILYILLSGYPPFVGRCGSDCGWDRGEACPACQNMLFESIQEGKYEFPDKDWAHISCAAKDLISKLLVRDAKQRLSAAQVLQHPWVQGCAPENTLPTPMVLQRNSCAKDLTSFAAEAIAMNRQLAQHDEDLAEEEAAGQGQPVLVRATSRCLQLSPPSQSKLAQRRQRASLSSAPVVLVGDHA

The test concerns the target MNK2a (Homo sapiens (Human), UniProt Q9HBH9). Nature of the test: MNK2a in vitro kinase assay (Assay 2), ADP-Glo. The class given is biochemical. The following applies: read-out: MNK2 IC50. Here is the method: B. MNK2a In vitro Kinase Assay (Assay 2)
ASSAY SETUP: The inhibition of kinase activity of MNK2a was assessed using pre-activated GST-MNK2a. The white, 384-well OptiPlate F plates were purchased from PerkinElmer. The ADP-Glo Kinase Assay (including ultra pure ATP) was purchased from Promega (V9103). Activated MNK2a was obtained as described in WO2011/104340. […] ID No. 5 of WO 2011/104340 by the C-terminal —CONH2 group, was purchased from Thermo Fisher Scientific. All other materials were of highest grade commercially available. Compounds are tested in either serial dilutions or single dose concentrations. The compound stock solutions are 10 mM in 100% DMSO The serial compound dilutions are prepared in 100% DMSO followed by 1:27.3 intermediate dilution in assay buffer. The final DMSO concentration in assay will be <3%. In the 384-well plates 3 μl of test compound from the intermediate dilution is mixed with 4 μl of the activated MNK2 enzyme (final concentration of 10 nM) and 4 μl of the peptide (final concentration of 25 μM)/ultra pure ATP (final concentration of 20 μM), all dissolved in assay buffer. This step is followed by an incubation time of 90 min, then 10 μl of ADP Glo reagent are added, followed by 40 min of incubation. Then 20 μl of kinase detection reagent are admixed. The plates are sealed and after an incubation period of 30 min, the luminescence signal is measured in an Envision reader to determine the amount of produced ADP. All incubation steps are performed at room temperature. The assay buffer consists of 20 mM HEPES, 2 mM DTT, 0.01% BSA, 20 mM MgCl2 and 0.1% Pluronic F-127.
The luminescent signal generated is proportional to the ADP concentration produced and is correlated with activated MNK2 activity. The analysis of the data is performed by the calculation of the percentage of ATP consumption of activated MNK2 in the presence of the test compound compared to the consumption of ATP in the presence of activated MNK2 without compound. (RLU(sample)−RLU(low control))*100/(RLU(high value)−RLU(low control)) [RLU=relative luminescence units]
[…] values based on dose response curves are calculated with the AssayExplorer software.
(In general: In ADP-Glo the light output rises with the ADP produced.)
By IC50 is commonly meant the point on the concentration scale where inhibition reaches its midpoint. `C[C@@H](Oc1cc(F)ccc1Nc1ncnc2cc(N=S(C)(C)=O)cc(F)c12)C(=O)NC(CF)CF` [Example 4.121]: the concentration for half-maximal inhibition (IC50) was found to be 5 nM. With `Cc1cc(N=S2(=O)CCC2)cc2ncnc(Nc3ccc(Cl)cc3O[C@H](C)C(=O)NCC(F)(F)F)c12` [Example 4.122], the IC50 is 1 nM. To `C[C@@H](Oc1cc(F)ccc1Nc1ncnc2cc(N=S3(=O)CCC3)cc(F)c12)C(=O)NCC(F)F` [Example 4.123] belongs 3 nM; to `Cc1cc(N=S2(=O)CCC2)cc2ncnc(Nc3ccc(Cl)nc3O[C@H](C)C(=O)NCC(F)(F)F)c12` [Example 4.124], 1 nM; to `Cc1cc(N=S2(=O)CCC2)cc2ncnc(Nc3ccc(Cl)cc3O[C@H](C)C(=O)NC(C)C(F)F)c12` (stereo partly drawn) [Example 4.125], 1 nM.

Take `CC(NC(=O)[C@@H](C)Oc1cc(F)ccc1Nc1ncnc2cc(N=S3(=O)CCC3)cc(Cl)c12)C(F)F` (stereo partly drawn) [Example 4.126]: the IC50 stood at 2 nM.

Turning to `Cc1cc(N=S(C)(C)=O)cc2ncnc(Nc3ccc(F)cc3O[C@H](C)C(=O)N[C@@H](C)C(F)(F)F)c12` [Example 4.127], the IC50 was determined as 2 nM.

With `C[C@@H](Oc1cc(F)ccc1Nc1ncnc2cc(N=S3(=O)CCC3)cc(F)c12)C(=O)NC(CF)CF` [Example 4.128], the 50% inhibitory concentration (IC50) came out at 2 nM. With `C[C@@H](Oc1cc(F)ccc1Nc1ncnc2cc(N=S3(=O)CCC3)cc(F)c12)C(=O)NCC(F)(F)C(F)(F)F` [Example 4.129], the IC50 came out at 2 nM. Turning to `CC(NC(=O)[C@@H](C)Oc1cc(F)ccc1Nc1ncnc2cc(N=S3(=O)CCC3)cc(F)c12)C(F)F` (stereo partly drawn) [Example 4.130], the IC50 stood at 3 nM. `Cc1cc(N=S2(=O)CCC2)cc2ncnc(Nc3ccc(F)cc3O[C@H](C)C(=O)NC(CF)CF)c12` [Example 4.131]: the IC50 was found to be 1 nM. Take `Cc1cc(N=S2(=O)CCC2)cc2ncnc(Nc3ccc(F)cc3O[C@H](C)C(=O)NC(C)C#N)c12` (stereo partly drawn) [Example 4.132]: the IC50 was 1 nM. Take `C[C@@H](Oc1cc(F)ccc1Nc1ncnc2cc(N=S(C)(C)=O)cc(F)c12)C(=O)NCC(F)F` [Example 4.133]: the IC50 worked out at 4 nM.

Consider `CC(NC(=O)[C@@H](C)Oc1cc(F)ccc1Nc1ncnc2cc(N=S(C)(C)=O)cc(Cl)c12)C(F)F` (stereo partly drawn) [Example 4.134], for which the IC50 was found to be 3 nM.

With `C[C@H](NC(=O)[C@@H](C)Oc1cc(F)ccc1Nc1ncnc2cc(N=S(C)(C)=O)cc(Cl)c12)C(F)(F)F` [Example 4.135], the concentration for half-maximal inhibition (IC50) was 2 nM. Take `C[C@@H](C#N)NC(=O)[C@@H](C)Oc1cc(F)ccc1Nc1ncnc2cc(N=S3(=O)CCC3)cc(Cl)c12` [Example 4.137]: the IC50 was 1 nM. As to `Cc1cc(N=S2(=O)CCC2)cc2ncnc(Nc3ccc(F)cc3O[C@H](C)C(=O)NCC(F)(F)F)c12` [Example 4.139], the IC50 turned out to be 1 nM. Regarding `Cc1cc(N=S2(=O)CCC2)cc2ncnc(Nc3ccc(Cl)nc3O[C@H](C)C(=O)N[C@@H](C)C#N)c12` [Example 4.140], the IC50 was 1 nM. Regarding `Cc1cc(N=S2(=O)CCC2)cc2ncnc(Nc3ccc(F)cc3O[C@H](C)C(=O)NCC(F)F)c12` [Example 4.141], the IC50 is 1 nM. In the case of `Cc1cc(N=S(C)(C)=O)cc2ncnc(Nc3ccc(Cl)cc3O[C@H](C)C(=O)NCC(F)F)c12` [Example 4.142] it was 2 nM; in that of `C[C@H](NC(=O)[C@@H](C)Oc1cc(F)ccc1Nc1ncnc2cc(N=S3(=O)CCC3)cc(C(F)F)c12)C(F)(F)F` [Example 4.143], 2 nM; in that of `Cc1cc(N=S2(=O)CCC2)cc2ncnc(Nc3ccc(F)cc3O[C@H](C)C(=O)NCCCF)c12` [Example 4.144], 2 nM. To `Cc1cc(N=S2(=O)CCC2)cc2ncnc(Nc3ccc(Cl)cc3O[C@H](C)C(=O)N[C@H](C)C(F)(F)F)c12` [Example 4.145] belongs 2 nM; to `CC(NC(=O)[C@@H](C)Oc1cc(F)ccc1Nc1ncnc2cc(N=S3(=O)CCC3)cc(C(F)F)c12)C(F)F` (stereo partly drawn) [Example 4.146], 4 nM; to `Cc1cc(N=S2(=O)CCC2)cc2ncnc(Nc3ccc(Cl)cc3O[C@H](C)C(=O)N[C@@H](C)C#N)c12` [Example 4.147], 3 nM. As to `COC(=O)N1CCS(=O)(=Nc2cc(C)c3c(Nc4ccc(F)cc4O[C@H](C)c4cc(C)no4)ncnc3c2)CC1` [Example 5.013], the IC50 is 2 nM.

As for `COc1cc(N=S2(=O)CCC2)cc2ncnc(Nc3ccc(F)cc3O[C@H](C)C(=O)N[C@@H](C)C(F)(F)F)c12` [Example 6.001], the 50% inhibitory concentration (IC50) was found to be 5 nM.

As to `COc1cc(N=S2(=O)CCC2)cc2ncnc(Nc3ccc(F)cc3O[C@H](C)C(=O)NCC(F)F)c12` [Example 6.002], the IC50 amounted to 2 nM.

Consider `CCOc1cc(N=S2(=O)CCC2)cc2ncnc(Nc3ccc(F)cc3O[C@H](C)C(=O)NCC(F)(F)F)c12` [Example 6.003], for which the IC50 was found to be 4 nM.

As to `COc1cc(N=S(C)(C)=O)cc2ncnc(Nc3cccnc3O[C@H](C)C(=O)NCC(F)(F)F)c12` [Example 6.004], the IC50 turned out to be 3 nM.

As to `Cc1cc(N=S(C)(C)=O)cc2ncnc(Nc3ccc(F)cc3O[C@H](CO)C(=O)NCC(F)(F)F)c12` [Example 7.011], the IC50 was 3 nM. With `Cc1cc(N=S(C)(C)=O)cc2ncnc(Nc3ccc(F)cc3O[C@H](CO)C(N)=O)c12` [Example 7.012], the 50% inhibitory concentration (IC50) was 46 nM. `Cc1cc(N=S(C)(C)=O)cc2ncnc(Nc3ccc(F)cc3O[C@H](CF)C(=O)NCC(F)(F)F)c12` [Example 7.013]: the IC50 turned out to be 4 nM.
